According to patent publication US5120752A, “Cyclopropyl derivative lipoxygenase inhibitors” (Abbott Laboratories, priority 1990, dated 1992):

What was measured:
leukotriene biosynthesis = assay: Inhibition of leukotriene biosynthesis in vivo after oral administration, rat peritoneal anaphylaxis model; conditions: 100 μmol/kg oral (gavage), 1 h before antigen challenge, read-out: % Inhibition of Leukotrienes at 100 μmol/kg oral dose
Experimental: Inhibition of the biosynthesis of leukotrienes in vivo after oral administration of representative test compounds of this invention was determined using a rat peritoneal anaphylaxis model in a similar manner as that described by Young and coworkers (Young, P. R.; Dyer, R. D.; Carter, G. W. Fed. Proc., Fed. Am. Soc. Exp. Biol. 1985, 44, 1185). In this model rats were injected intraperitoneally (ip) with rabbit antibody to bovine serum albumin (BSA) and three hours later injected ip with BSA to induce an antgen-antibody response. Rats were sacrificed 15 minutes after this challenge and the peritoneal fluids were collected and analyzed for leukotriene levels. Test compounds were administered by gavage one hour prior to the antigen challenge. Percent inhibition values were determined by comparing the treatment group to the mean of the control group. The results of this assay, for representative compounds of the present invention, at an oral dose level of […] are presented in Table 2, and at an oral dose of […] in Table 3.

[1] = system: LTB4 biosynthesis in human whole blood; assay: Inhibition of calcium ionophore-induced LTB4 biosynthesis in human whole blood; type: cell-based; conditions: for IC50: A23187 50 μM, 15 min preincubation, read-out: Inhibition of Leukotriene Biosynthesis IC50
Experimental: Inhibition of leukotriene biosynthesis was evaluated in an assay, involving calcium ionophore-induced LTB4 biosynthesis expressed by human whole blood. Heparinized (20 U/mL) human blood (0.3 mL) was preincubated with test compound or vehicle for 15 min. at 37° C. Eicosanoid biosynthesis was initiated by adding calcium ionophore (A23187) in DMSO to a final concentration of 50 μM and terminated after 30 min. by rapid cooling of the blood in an ice bath and centrifuging at 3° C. for 10 min at 2500×g. The plasma was mixed with 4 volumes of methanol and allowed to stand for at least 30 min. at 3° C. prior to centrifuging at 1800×g for 10 min. The level of LTB4 in aliquots of the methanol-plasma extract was analyzed by radio-immunoassay or enyme-immunoassay techniques.

| SMILES | IC50 [1] [nM] | inhibition in vivo at 100 µmol/kg (leukotriene biosynthesis) [%] | inhibition at 0.1 µM ([1]; 0.1 μM, read-out: Inhibition of Leukotriene Biosynthesis (% at 0.1 μM)) [%] | inhibition at 0.2 µM ([1]; 0.2 μM, read-out: Inhibition of Leukotriene Biosynthesis (% at 0.2 μM)) [%] |
| --- | --- | --- | --- | --- |
| Cc1ccccc1Oc1cccc([C@@H]2C[C@H]2CN(O)C(N)=O)c1 (relative stereo) [Example 170, N-(1-trans-(2-(3-(2-methylphenoxy)phenyl)cyclopropyl)methyl)-N-hydroxyurea] | – | 94 | 89 | – |
| CNC(=O)N(O)C[C@@H]1C[C@H]1c1cccc(Oc2ccc(C)cc2)c1 (relative stereo) [Example 179, N-(1-trans-(2-(3-(4-methylphenoxy)phenyl)cyclopropyl)methyl)-N-hydroxy-N'-methylurea] | – | 61 | – | 61 |
| CC([C@@H]1C[C@H]1c1ccoc1)N(O)C(N)=O (stereo partly drawn) [Example 192, N-(1-trans-(2-(3-furanyl)cyclopropyl)ethyl)-N-hydroxyurea] | 1200 | 71 | – | – |
| NC(=O)N(O)C[C@@H]1C[C@H]1c1ccco1 (relative stereo) [Example 198, N-(1-trans-(2-(2-furanyl)cyclopropyl)methyl)-N-hydroxyurea] | 970 | 90 | – | – |
| NC(=O)N(O)C[C@@H]1C[C@H]1c1ccsc1 (relative stereo) [Example 188, N-(1-trans-(2-(3-thienyl)cyclopropyl)methyl)-N-hydroxyurea] | 320 | 97 | – | – |
| Cc1ccc(Oc2cccc([C@@H]3C[C@H]3C(C)N(O)C(N)=O)c2)cc1 (stereo partly drawn) [Example 180, N-(1-trans-(2-(3-(4-methylphenoxy)phenyl)cyclopropyl)ethyl)-N-hydroxyurea] | 690 | 85 | – | – |
| NC(=O)N(O)C[C@@H]1C[C@H]1c1cccc(Oc2ccc(O)cc2)c1 (relative stereo) [Example 160, N-(1-trans-(2-(3(4-hydroxyphenoxy)phenyl)cyclopropyl)methyl)-N-hydroxyurea] | 470 | – | – | – |
| CNC(=O)N(O)C(C)[C@@H]1C[C@H]1c1ccoc1 (stereo partly drawn) [Example 191, N-(1-trans-(2-(3-furanyl)cyclopropyl)ethyl)-N-hydroxy-N'-methylurea] | 830 | – | – | – |
| NC(=O)N(O)C[C@@H]1C[C@H]1c1cccc(Oc2cnc3ccccc3c2)c1 (relative stereo) [Example 164, N-(1-trans-(2-(3-(3-quinonyloxy)phenyl)cyclopropyl)methyl)-N-hydroxyurea] | 610 | – | – | – |
| CC(=O)N(O)C(C)[C@@H]1C[C@H]1c1cccs1 (stereo partly drawn) [Example 196, N-(1-trans-(2-(2-thienyl)cyclopropyl)ethyl)-N-hydroxyacetamide] | 980 | – | – | – |

Continued by falling IC50 [1], values first:

| IC50 [1] [nM] | SMILES | inhibition in vivo at 100 µmol/kg (leukotriene biosynthesis) [%] | inhibition at 0.1 µM ([1]; 0.1 μM, read-out: Inhibition of Leukotriene Biosynthesis (% at 0.1 μM)) [%] | inhibition at 0.2 µM ([1]; 0.2 μM, read-out: Inhibition of Leukotriene Biosynthesis (% at 0.2 μM)) [%] |
| --- | --- | --- | --- | --- |
| 250 | Cc1ccc(Oc2cccc([C@@H]3C[C@H]3C(C)CN(O)C(N)=O)c2)cc1 (stereo partly drawn) [Example 162, N-(2-trans-(2-(3-(4-methylphenoxy)phenyl)cyclopropyl)propyl)-N-hydroxyurea] | – | – | – |
| 140 | Cc1cccc(Oc2cccc([C@@H]3C[C@H]3CN(O)C(N)=O)c2)c1 (relative stereo) [Example 174, N-(1-trans-(2-(3-(3-methylphenoxy)phenyl)cyclopropyl)methyl)-N-hydroxyurea] | 96 | – | – |
| 110 | NC(=O)N(O)C[C@@H]1C[C@H]1c1cccc(Oc2nccs2)c1 (relative stereo) [Example 166, N-(1-trans-(2-(3-(2-thiazolyloxy)phenyl)cyclopropyl)methyl)-N-hydroxyurea] | 91 | – | – |
| 50 | NC(=O)N(O)C[C@@H]1C[C@H]1c1cccc(Oc2cccnc2)c1 (relative stereo) [Example 168, N-(1-trans-(2-(3-(3-pyridyloxy)phenyl)cyclopropyl)methyl)-N-hydroxyurea] | 99 | – | – |
| 40 | CCOc1ccc(Oc2cccc([C@@H]3C[C@H]3CN(O)C(N)=O)c2)cc1 (relative stereo) [Example 167, N-(1-trans-(2-(3-(4-ethoxyphenoxy)phenyl)cyclopropyl)methyl)-N-hydroxyurea] | 94 | – | – |
